Holding throughout (type): physicochemical
Series [1] in a line: Static storage stability at elevated temperature/humidity (XRPD, HPLC purity). On the procedure: XRPD diffractograms were collected on a Bruker D8 diffractometer using Cu Kα, radiation (40 kV, 40 mA) and a 0-20 goniometer fitted with a Ge monochromator. The incident beam passes through a 2.0 mm divergence slit followed by a 0.2 mm anti-scatter slit and knife edge. The diffracted beam passes through an 8.0 mm receiving slit with 2.5° Soller slits followed by the Lynxeye Detector. The software used for data collection and analysis was Diffrac Plus XRD Commander and Diffrac Plus EVA respectively.
XRPD diffractograms were collected on a PANalytical Empyrean diffractometer using Cu Kα, radiation (45 kV, 40 mA) in transmission geometry. A 0.5° slit, 4 mm mask and 0.04 rad Soller slits with a focusing mirror were used on the incident beam. A PIXcel3D detector, placed on the diffracted beam, was fitted with a receiving slit and 0.04 rad Soller slits. The software used for data collection was X'Pert Data Collector using X'Pert Operator Interface. The data were analyzed and presented using Diffrac Plus EVA or HighScore Plus.
Purity analysis was performed on an AgilentHP1100/Infinity 111260 series system equipped with a diode array detector and using OpenLAB software.

Series [2] is described as follows: Gravimetric Vapour Sorption (GVS). The conditions noted are these: for XRPD post-GVS: residue after GVS. How it is done: Sorption isotherms were obtained using a SMS DVS Intrinsic moisture sorption analyser, controlled by DVS Intrinsic Control software. The sample temperature was maintained at 25° C. by the instrument controls. The humidity was controlled by mixing streams of dry and wet nitrogen, with a total flow rate of 200 ml/min. The relative humidity was measured by a calibrated Rotronic probe (dynamic range of 1.0-100% RH), located near the sample. The weight change, (mass relaxation) of the sample as a function of % RH was constantly monitored by a microbalance (accuracy ±0.005 mg). Typically, 20-30 mg of sample was placed in a tared mesh stainless steel basket under ambient conditions. The sample was loaded and unloaded at 40% RH and 25° C. (typical room conditions). A moisture sorption isotherm was performed as outlined below (2 scans per complete cycle). The standard isotherm was performed at 25° C. at 10% RH intervals over a 0-90% RH range. Typically, a double cycle (4 scans) was carried out. Data analysis was carried out within Microsoft Excel using the DVS Analysis Suite. [table]

A short description of another series: physchem. The text has this:
There was insufficient residue to characterize these further.

A short description of series [3]: Thermodynamic aqueous solubility. To be noted: for pH of saturated solution: water, after 24 hours equilibration. On the procedure:
Aqueous solubility was determined by suspending sufficient compound in 0.5 ml deionized water to give a maximum final concentration of 40 mg/mi of the parent free-form of the compound. The suspension was equilibrated at 25° C., on a Heidolph plate shaker set to 750 rpm for 24 hours. After equilibration, the appearance was noted and the pH of the saturated solution was measured. Samples forming suspensions were centrifuged for 4 min at 13,500 rpm. Samples were then filtered through a glass fiber C filter (particle retention 1.2 μm), before dilution with H2O as appropriate.
Quantitation was by HPLC (see Table 2 for parameters) with reference to a standard solution of approximately 0.15 mg/ml in DMSO. Different volumes of the standard, diluted and undiluted sample solutions were injected. The solubility was calculated using the peak areas determined by integration of the peak found at the same retention time as the principal peak in the standard injection. Analysis was performed on an AgilentHPl 100/Infinity II 1260 series system equipped with a diode array detector and using OpenLAB software.

[4] abbreviates: 7 days / 1 week at 25° C./97% RH.
[5] abbreviates: 7 days / 1 week at 40° C./75% RH.

This is an account of results in patent publication US12012396B2, “HDAC inhibitor solid state forms” (Viracta Subsidiary, Inc., priority 2020, dated 2024).

“Also recorded” adds a separate entry of the source. Structures can show the parent of a compound that is named as a salt.

Turning to `O=C(NO)c1cnc(N2C[C@@H]3[C@H](C2)[C@H]3NCc2ccc3cc(F)ccc3n2)nc1` [Mesylate Form 8, N-hydroxy 2-{6-[(6-fluoro-quinolin-2-ylmethyl)-amino]-3-aza-bicyclo[3.1.0]hex-3-yl}pyrimidine-5-carboxamide], the “Solid form by XRPD after static storage” value in series [1] (setting [4]) and in series [1] (setting [5]) was “converted to Mesylate Form 1” in each case.
Turning to `O=C(NO)c1cnc(N2C[C@@H]3[C@H](C2)[C@H]3NCc2ccc3cc(F)ccc3n2)nc1` [Mesylate Form 9, N-hydroxy 2-{6-[(6-fluoro-quinolin-2-ylmethyl)-amino]-3-aza-bicyclo[3.1.0]hex-3-yl}pyrimidine-5-carboxamide], the “Appearance after static storage” value in series [1] (1 week at 25° C./97% RH) is “Sample appeared wet - white solid still present”; in series [1] (1 week at 40° C./75% RH), “color change to yellow; also recorded: Sample appeared ‘damp’ - yellow solid present”. The “Solid form by XRPD after static storage” value in series [1] (setting [4]) is recorded as “Poorly crystalline - Mesylate Form 1”; in series [1] (setting [5]) it was “Mesylate Form 1”.
Turning to `O=C(NO)c1cnc(N2C[C@@H]3[C@H](C2)[C@H]3NCc2ccc3cc(F)ccc3n2)nc1` [Mesylate Form 2, N-hydroxy 2-{6-[(6-fluoro-quinolin-2-ylmethyl)-amino]-3-aza-bicyclo[3.1.0]hex-3-yl}pyrimidine-5-carboxamide], the “HPLC purity after static storage” value in series [1] (setting [4]) and in series [1] (setting [5]) was 99.5% each time. Besides, the “Solid form by XRPD after static storage” value in series [1] (setting [4]) was “unchanged; also recorded: Mesylate Form 2”; in series [1] (7 days / 1 week at 25° C./97% RH, listed as Form 2) it was “stable”; in series [1] (setting [5]), “unchanged; also recorded: Mesylate Form 2”; in series [1] (7 days / 1 week at 40° C./75% RH, listed as Form 2), “stable”. The “XRPD post-GVS” value in series [2] was “unchanged; also recorded: XRPD Post-GVS: Mesylate Form 2”.
Take `O=C(NO)c1cnc(N2C[C@@H]3[C@H](C2)[C@H]3NCc2ccc3cc(F)ccc3n2)nc1` [Mesylate Form 3, N-hydroxy 2-{6-[(6-fluoro-quinolin-2-ylmethyl)-amino]-3-aza-bicyclo[3.1.0]hex-3-yl}pyrimidine-5-carboxamide]: the “Solid form by XRPD after static storage” value was “unchanged; also recorded: Mesylate Form 3” in series [1] (setting [4]); “remained as Mesylate Form 3” in series [1] (7 days / 1 week at 25° C./97% RH, listed as Form 3); “conversion to Mesylate Form 5” in series [1] (setting [5]); “convert to Mesylate Form 5” in series [1] (7 days / 1 week at 40° C./75% RH, listed as Form 3). Besides, the “Water content after desorption” value in series [2] (desorption cycle 1 down to 30% RH) was 24.30%. Besides, the “Water loss, desorption cycle 1” value in series [2] (from 30-20% RH) was “Desorption Cycle 1 22%”. Further, the “XRPD post-GVS” value in series [2] is listed as “XRPD Post-GVS: Poorly crystalline broad”. For the same compound, the “Solubility residue pattern in FaSSGF” value in “physchem” is “new solubility residue patterns”.
`O=C(NO)c1cnc(N2C[C@@H]3[C@H](C2)[C@H]3NCc2ccc3cc(F)ccc3n2)nc1` [Free Base Form B, N-hydroxy 2-{6-[(6-fluoro-quinolin-2-ylmethyl)-amino]-3-aza-bicyclo[3.1.0]hex-3-yl}pyrimidine-5-carboxamide]: the “pH of saturated solution” value in series [3] is listed as “(pH = 7.4)”.
With `O=C(NO)c1cnc(N2C[C@@H]3[C@H](C2)[C@H]3NCc2ccc3cc(F)ccc3n2)nc1` [Compound 1, N-hydroxy-2-{6-[(6-fluoro-quinolin-2-ylmethyl)-amino]-3-aza-bicyclo[3.1.0]hex-3-yl}pyrimidine-5-carboxamide], the Solubility in water result in series [3] (deionized water, 25° C., 24 hours, maximum final concentration 40 mg/ml, listed as Free base) is reported as “essentially insoluble”.
Take `O=C(NO)c1cnc(N2C[C@@H]3[C@H](C2)[C@H]3NCc2ccc3cc(F)ccc3n2)nc1` [Mesylate Form 5, N-hydroxy 2-{6-[(6-fluoro-quinolin-2-ylmethyl)-amino]-3-aza-bicyclo[3.1.0]hex-3-yl}pyrimidine-5-carboxamide]: the “Solid form by XRPD after static storage” value in series [1] (setting [4]) and in series [1] (setting [5]) was “remained as Mesylate Form 5; also recorded: Unchanged: Mesylate Form 5” in each case. Further, in series [2], the “XRPD post-GVS” value is given as “unchanged; also recorded: stable; also recorded: XRPD Post-GVS: Mesylate Form 5”. In addition, the “Solubility residue pattern in FaSSGF” value in “physchem” is reported as “new solubility residue patterns”.
Take `O=C(NO)c1cnc(N2C[C@@H]3[C@H](C2)[C@H]3NCc2ccc3cc(F)ccc3n2)nc1` [amorphous mesylate salt, N-hydroxy 2-{6-[(6-fluoro-quinolin-2-ylmethyl)-amino]-3-aza-bicyclo[3.1.0]hex-3-yl}pyrimidine-5-carboxamide]: the “Solid form by XRPD after static storage” value is “largely amorphous” in series [1] (7 days / 1 week at 25° C./97% RH, listed as amorphous) and “largely amorphous” in series [1] (7 days / 1 week at 40° C./75% RH, listed as amorphous).
Consider `O=C(NO)c1cnc(N2C[C@@H]3[C@H](C2)[C@H]3NCc2ccc3cc(F)ccc3n2)nc1` [Mesylate Form 7, N-hydroxy 2-{6-[(6-fluoro-quinolin-2-ylmethyl)-amino]-3-aza-bicyclo[3.1.0]hex-3-yl}pyrimidine-5-carboxamide], for which the “Solid form by XRPD after static storage” value in series [1] (setting [4]) and in series [1] (setting [5]) was “converted to Mesylate Form 1” throughout.
For the compound `O=C(NO)c1cnc(N2C[C@@H]3[C@H](C2)[C@H]3NCc2ccc3cc(F)ccc3n2)nc1` [Mesylate Form 4, N-hydroxy 2-{6-[(6-fluoro-quinolin-2-ylmethyl)-amino]-3-aza-bicyclo[3.1.0]hex-3-yl}pyrimidine-5-carboxamide], the “Solid form by XRPD after static storage” value was “conversion to Mesylate Form 1; also recorded: converted to Mesylate Form 1” in series [1] (setting [4]); “mixture of Mesylate Form 1 and Form 4” in series [1] (setting [5]). In series [2] (RH range of hysteresis), the “Hysteresis in GVS” value was “displaying hysteresis loop”. Moreover, the “Water content loss, desorption cycle 1” value in series [2] (between 20 to 10% RH) is reported as ~9%. In addition, in series [2], the “XRPD post-GVS” value is on record as “conversion to Mesylate Form 1; also recorded: Post-GVS: Converted to Mesylate Form 1 by XRPD”.
For the compound `O=C(NO)c1cnc(N2C[C@@H]3[C@H](C2)[C@H]3NCc2ccc3cc(F)ccc3n2)nc1` [Mesylate Form 6, N-hydroxy 2-{6-[(6-fluoro-quinolin-2-ylmethyl)-amino]-3-aza-bicyclo[3.1.0]hex-3-yl}pyrimidine-5-carboxamide], the “Solid form by XRPD after static storage” value in series [1] (setting [4]) and in series [1] (setting [5]) was “converted to Mesylate Form 1” throughout.
Turning to `O=C(NO)c1cnc(N2C[C@@H]3[C@H](C2)[C@H]3NCc2ccc3cc(F)ccc3n2)nc1` [Free Base Form A, N-hydroxy 2-{6-[(6-fluoro-quinolin-2-ylmethyl)-amino]-3-aza-bicyclo[3.1.0]hex-3-yl}pyrimidine-5-carboxamide], the “pH of saturated solution” value in series [3] is listed as “(pH = 7.4)”.
